# Test results published in patent publication US11761951B2, “Methods of selecting therapeutic molecules” (Bristol-Myers Squibb Company, priority 2015, dated 2023).
# Key:
# [1] = system: rat primary cortical neurons; test: Primary cortical neuron spontaneous calcium oscillation (FLIPR, fluo-4 AM); format: cell-based; details: primary neuronal spontaneous calcium oscillations
# Procedure: (§1) To measure primary cortical neuron spontaneous calcium oscillation, rat primary cortical neurons were prepared from Sprague-Dawley rat embryos (E19). Cells were plated 25,000 cells/well onto 384 well poly-D-lysine coated FLIPR plates (Greiner Bio-One) in 25 μl/well Neurobasal media containing B27 supplement and 2 mM glutamine (day 1 in vitro, DIV1). Cells were grown for 11 days at 37° C. in 5% CO2 and fed with 25 μl of additional media on day 4 in vitro (“DIV04”) and day 8 in vitro (“DIV08”) for use on day 11 in vitro (“DIV11”). […] After 1 hr 20 μl of room temperature assay buffer was added and the cells were allowed to equilibrate to room temperature for 10 additional minutes and placed in the fluorescent imaging plate reader (FLIPR). Baseline signal (measurement of intracellular calcium) was read for 100 seconds (1 reading/second) before the addition of anti-sense oligomers. […] FLIPR signal was read for an additional 200 seconds (1 reading/second) after the addition of oligomer. A second 5 minute post addition plate read (300 one second points) on the FLIPR was conducted to allow for additional data capture. Raw data from the 5 minute read was exported and, using Excel, spike amplitude and frequency was calculated. Calculations were performed by measuring the average FLIPR signal over the 300 second read for control (non-treated) wells. […]
# [2] = system: AMPA receptor; test: AMPA receptor mediated spontaneous calcium oscillations in primary neurons; format: cell-based, rat; details: 25 μM oligomer; presence or absence of 1 mM MgCl2 representing 100% control
# Procedure: as §1
# [3] = system: NMDA receptor; test: NMDA receptor mediated spontaneous calcium oscillations in primary neurons; format: cell-based, rat; details: 25 μM oligomer; presence or absence of 1 mM MgCl2 representing 100% control
# Procedure: as §1
# [4] = system: central nervous system (CNS) network activity; test: CNS network activity in vivo (data not shown)
# [5] = system: spontaneous neuronal activity; test: Electrophysiologic spontaneous neuronal activity in vitro (data not shown); format: cell-based
molecule,measurement,setting,value
"6-Cyano-7-nitroquinoxaline-2,3-dione [CNQX]",reduction of calcium oscillations (total AMPA response in the assay),[1]; CNQX 3 μM,20%
[Cl-].[Cl-].[Mg+2] [MgCl2],reduction of calcium oscillations when NMDA receptor function was blocked,[1]; 1 mM MgCl2,about 80%
"TGTgatgcaggaGTT (antisense TGTGATGCAGGAGTT; listed as DNA, chemistry not given here) [ASO-00007]",inhibition of AMPA receptor mediated calcium oscillations,[2],inhibited AMPA receptor
same,inhibition of NMDA receptor mediated calcium oscillations,[3],not NMDA receptor
same,impact on central nervous system (CNS) network activity in vivo,[4],negatively impact
same,impact on electrophysiologic spontaneous neuronal activity in vitro,[5],negatively impact
